Tests used:
[1] = Cytotoxicity against wild type human THP1-Dual cells assessed as cell viability incubated for 24 hrs by CellTiter 96 aqueous one solution assay relative to control; type: toxicity, cell-based; design: concentration or dose not given beside the values; conditions: read-out: Activity
[2] = molecular target: Stimulator of interferon genes protein (Homo sapiens, UniProt Q86WV6); test: Agonist activity at STING in wild type human THP1-Dual cells assessed as increase in IRF-mediated immune response incubated for 24 hrs by QUANTI-Luc assay; type: cell-based
[3] = Cytotoxicity against human THP1-Dual KO-STING cells assessed as cell viability incubated for 24 hrs by CellTiter 96 aqueous one solution assay relative to control; type: toxicity, cell-based; design: concentration or dose not given beside the values; conditions: read-out: Activity
[4] = Agonist activity at STING (unknown origin)

Sequence of Stimulator of interferon genes protein (Q86WV6 whole entry): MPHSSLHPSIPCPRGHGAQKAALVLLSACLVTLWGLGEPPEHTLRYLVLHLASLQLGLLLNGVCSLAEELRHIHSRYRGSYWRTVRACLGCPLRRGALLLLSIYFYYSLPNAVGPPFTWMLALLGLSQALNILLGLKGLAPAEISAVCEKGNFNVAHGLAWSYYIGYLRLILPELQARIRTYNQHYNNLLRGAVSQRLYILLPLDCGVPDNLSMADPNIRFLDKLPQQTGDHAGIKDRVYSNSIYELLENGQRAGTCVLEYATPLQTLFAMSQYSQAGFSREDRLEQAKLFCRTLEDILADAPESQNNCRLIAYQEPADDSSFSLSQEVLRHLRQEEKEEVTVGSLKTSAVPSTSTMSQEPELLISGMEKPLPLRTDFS

Cc1ncccc1C(=O)Nc1nc2cc(C(N)=O)ccc2n1CCCCn1c(NC(=O)c2cccnc2C)nc2cc(C(N)=O)ccc21
viability at 24 h [1]: 91% | EC50 [2]: 18 µM | viability at 24 h [3]: 118%

CC(C)(C)OC(=O)NCCCCn1c(NC(=O)c2ccccc2)nc2cc(C(N)=O)ccc21
viability at 24 h [1]: 82.1% | viability at 24 h [3]: 101%

CC(C)(C)OC(=O)NCCCCn1c(NC(=O)c2ccc(C(F)(F)F)nc2)nc2cc(C(N)=O)ccc21
viability at 24 h [1]: 106% | viability at 24 h [3]: 108%

Cc1ncccc1C(=O)Nc1nc2cc(C(N)=O)ccc2n1CCCCN
viability at 24 h [1]: 105% | viability at 24 h [3]: 98.5%

Cc1ncccc1C(=O)Nc1nc2cc(C(N)=O)ccc2n1CCCN
viability at 24 h [1]: 105% | viability at 24 h [3]: 100%

Cc1ncccc1C(=O)Nc1nc2cc(C(N)=O)ccc2n1CCCCNC(=O)c1ccccc1
viability at 24 h [1]: 101% | viability at 24 h [3]: 93.8%

Nc1nc2c(ncn2[C@@H]2O[C@@H]3COP(=O)(O)O[C@H]4[C@@H](O)[C@H](n5cnc6c(N)ncnc65)O[C@@H]4COP(=O)(O)O[C@H]3[C@H]2O)c(=O)[nH]1
viability at 24 h [1]: 87% | viability at 24 h [3]: 97.2%

Cc1cncc(C(=O)Nc2nc3cc(C(N)=O)ccc3n2CCCCNC(=O)OC(C)(C)C)c1
viability at 24 h [1]: 90.7% | viability at 24 h [3]: 97.4%

CC(C)(C)OC(=O)NCCCCn1c(NC(=O)c2ccc(F)nc2)nc2cc(C(N)=O)ccc21
viability at 24 h [1]: 102% | viability at 24 h [3]: 107%

CCn1nc(C)cc1C(=O)Nc1nc2cc(C(N)=O)ccc2n1CCCCNC(=O)OC(C)(C)C
viability at 24 h [1]: 69% | EC50 [2]: 19.6 µM | viability at 24 h [3]: 105%

CC(C)(C)OC(=O)NCCCCn1c(NC(=O)c2cccnc2Cl)nc2cc(C(N)=O)ccc21
viability at 24 h [1]: 105% | viability at 24 h [3]: 100%

CC(C)(C)OC(=O)NCCCCn1c(NC(=O)c2ccncc2)nc2cc(C(N)=O)ccc21
viability at 24 h [1]: 86.9% | viability at 24 h [3]: 90.6%

CCn1nc(C)cc1C(=O)NCCCCn1c(NC(=O)c2cccnc2C)nc2cc(C(N)=O)ccc21
viability at 24 h [1]: 98.5% | viability at 24 h [3]: 105%

Cc1nc(C(F)(F)F)ccc1C(=O)Nc1nc2cc(C(N)=O)ccc2n1CCCCNC(=O)OC(C)(C)C
viability at 24 h [1]: 106% | EC50 [2]: 29.7 µM | viability at 24 h [3]: 97.5%

COc1cc(C(N)=O)cc2nc(NC(=O)c3cccnc3C)n(C/C=C/CNC(=O)OC(C)(C)C)c12
viability at 24 h [1]: 106% | viability at 24 h [3]: 97.5%

CCn1nc(C)cc1C(=O)/N=c1\[nH]c2cc(C(N)=O)ccc2n1C[C@@H](O)c1ccccc1
EC50 [4]: 102 µM
